# Results: ChEMBL document CHEMBL5543172, “Novel Isoalantolactone-Based Derivatives as Potent NLRP3 Inflammasome Inhibitors: Design, Synthesis, and Biological Characterization” (J Med Chem, 2024)
# Calls of active or inactive are those of the source. The rule behind the calls is not given here.
# Legend:
# [1] = biological target: Sodium-dependent serotonin transporter (Homo sapiens) (UniProt P31645); experiment: Activation of 5-HTT (unknown origin) at 1 uM relative to control
# [2] = biological target: Cytochrome P450 2E1 (Homo sapiens, UniProt P05181); experiment: Inhibition of CYP2E1 in human liver microsomes using chlorzoxazone as substrate preincubated for 5 mins followed by NADPH addition and measured after 30 to 60 mins by LC-MS/MS analysis; format: ADME, Microsome
# [3] = Half life in male C57BL/6 mouse at 30 mg/kg, ip measured upto 1440 mins by LC-MS/MS analysis; format: ADME, organism-based; details: in vivo
# [4] = AUC (0 to t) in male C57BL/6 mouse at 30 mg/kg, ip measured upto 1440 mins by LC-MS/MS analysis; format: ADME, organism-based; details: in vivo
# [5] = biological target: Voltage-dependent N-type calcium channel subunit alpha-1B (Homo sapiens) (UniProt Q00975); experiment: Activation of Cav2.2 (unknown origin) at 1 uM relative to control
# [6] = biological target: Adenosine receptor A2a (Homo sapiens) (UniProt P29274); experiment: Activation of adenosine A2A receptor (unknown origin) at 1 uM relative to control
# Adenosine receptor A2a (Homo sapiens), sequence (P29274 whole entry, the tested form may be a part): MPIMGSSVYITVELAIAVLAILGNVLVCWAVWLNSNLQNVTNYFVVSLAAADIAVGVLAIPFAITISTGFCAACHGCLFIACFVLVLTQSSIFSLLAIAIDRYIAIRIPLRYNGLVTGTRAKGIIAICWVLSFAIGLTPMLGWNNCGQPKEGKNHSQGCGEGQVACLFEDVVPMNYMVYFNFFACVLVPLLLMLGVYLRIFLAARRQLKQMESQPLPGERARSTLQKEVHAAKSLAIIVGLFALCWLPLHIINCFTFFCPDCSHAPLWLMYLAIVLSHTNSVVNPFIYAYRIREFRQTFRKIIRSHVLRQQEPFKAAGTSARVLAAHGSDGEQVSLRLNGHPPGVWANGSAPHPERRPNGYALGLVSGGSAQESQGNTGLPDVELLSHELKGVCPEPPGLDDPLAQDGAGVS
# [7] = system: Mus musculus; experiment: Anti-colitis activity against DSS-induced ulcerative colitis C57BL/6 mouse model assessed as alleviation of mucosal damage in colon at 15 to 30 mg/kg, ip administered daily and measured after 10 days by H and E staining based analysis; format: functional, organism-based; details: dose 15-30 mg/kg, time 10.0 day
# [8] = system: BMDM; experiment: Inhibition of pyroptosis in LPS/nigericin induced […] cells assessed as reduction in red fluorescence production preincubated with LPS for 3 hrs followed by compound addition for 40 mins and further stimulated with nigericin for 40 mins by PI staining based inverted microscopy based analysis; format: functional, cell-based; details: dose 0.25-1 µM, time 80.0 min
# [9] = organism: Homo sapiens; experiment: Activation of GlyRalpha1beta (unknown origin) at 1 uM relative to control
# [10] = system: Mus musculus; experiment: Anti-colitis activity against DSS-induced ulcerative colitis C57BL/6 mouse model assessed as reduction in IL-1 beta level at 15 to 30 mg/kg, ip by ELISA method; format: functional, organism-based; details: dose 15-30 mg/kg
# [11] = biological target: Glucocorticoid receptor (Homo sapiens) (UniProt P04150); experiment: Inhibition of GR receptor (unknown origin) at 1 uM relative to control
# Glucocorticoid receptor (Homo sapiens), sequence (P04150 whole entry): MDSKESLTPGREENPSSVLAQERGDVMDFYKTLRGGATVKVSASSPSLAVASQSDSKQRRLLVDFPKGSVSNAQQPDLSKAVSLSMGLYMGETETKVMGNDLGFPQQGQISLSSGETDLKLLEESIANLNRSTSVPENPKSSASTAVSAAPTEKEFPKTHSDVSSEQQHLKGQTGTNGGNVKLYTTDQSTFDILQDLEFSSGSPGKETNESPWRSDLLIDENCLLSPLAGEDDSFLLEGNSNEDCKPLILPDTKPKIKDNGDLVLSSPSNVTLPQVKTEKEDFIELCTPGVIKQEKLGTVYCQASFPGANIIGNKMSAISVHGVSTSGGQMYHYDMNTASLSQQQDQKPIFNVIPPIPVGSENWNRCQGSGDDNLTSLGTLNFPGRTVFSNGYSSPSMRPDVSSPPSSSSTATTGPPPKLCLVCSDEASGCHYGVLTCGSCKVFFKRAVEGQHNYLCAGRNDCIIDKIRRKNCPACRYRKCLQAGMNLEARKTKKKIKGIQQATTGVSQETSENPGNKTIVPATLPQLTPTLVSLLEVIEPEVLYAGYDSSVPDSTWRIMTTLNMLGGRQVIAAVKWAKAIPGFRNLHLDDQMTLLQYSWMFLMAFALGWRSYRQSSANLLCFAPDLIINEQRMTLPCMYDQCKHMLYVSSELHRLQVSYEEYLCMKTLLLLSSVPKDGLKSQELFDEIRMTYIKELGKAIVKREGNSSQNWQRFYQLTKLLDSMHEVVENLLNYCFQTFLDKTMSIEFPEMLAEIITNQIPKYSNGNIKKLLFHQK
# [12] = biological target: Sodium-dependent noradrenaline transporter (Homo sapiens) (UniProt P23975); experiment: Activation of NET (unknown origin) at 1 uM relative to control
# Sodium-dependent noradrenaline transporter (Homo sapiens), sequence (P23975 whole entry): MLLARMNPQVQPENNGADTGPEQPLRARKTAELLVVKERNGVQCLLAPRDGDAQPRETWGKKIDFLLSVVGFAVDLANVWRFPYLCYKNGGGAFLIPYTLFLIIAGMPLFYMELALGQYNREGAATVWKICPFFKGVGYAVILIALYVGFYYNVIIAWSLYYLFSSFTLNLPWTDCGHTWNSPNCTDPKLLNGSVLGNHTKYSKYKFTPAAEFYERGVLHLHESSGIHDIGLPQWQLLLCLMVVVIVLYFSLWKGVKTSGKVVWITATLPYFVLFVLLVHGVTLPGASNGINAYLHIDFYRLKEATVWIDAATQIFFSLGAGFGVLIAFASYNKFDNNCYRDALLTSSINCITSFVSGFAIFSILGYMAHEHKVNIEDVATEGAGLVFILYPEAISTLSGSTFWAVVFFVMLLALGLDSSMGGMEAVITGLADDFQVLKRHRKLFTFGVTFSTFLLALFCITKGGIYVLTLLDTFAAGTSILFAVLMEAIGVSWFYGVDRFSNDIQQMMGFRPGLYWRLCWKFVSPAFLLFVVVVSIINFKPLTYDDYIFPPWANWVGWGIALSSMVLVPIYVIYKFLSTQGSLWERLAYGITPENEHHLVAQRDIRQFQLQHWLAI
# [13] = system: Mus musculus; experiment: Anti-colitis activity against DSS-induced ulcerative colitis C57BL/6 mouse model assessed as alleviation of thickening of inherent base layer in colon at 15 to 30 mg/kg, ip administered daily and measured after 10 days by H and E staining based analysis; format: functional, organism-based; details: dose 15-30 mg/kg, time 10.0 day
# [14] = Genotoxicity in mouse BMDM cells; format: toxicity, cell-based
# [15] = Drug distribution in C57BL/6 mouse plasma at 30 mg/kg, ip measured after 2 hrs by LC-MS/MS analysis; format: ADME, organism-based
# [16] = biological target: Cytochrome P450 3A4 (Homo sapiens, UniProt P08684); experiment: Inhibition of CYP3A4 in human liver microsomes using midazolam as substrate preincubated for 5 mins followed by NADPH addition and measured after 30 to 60 mins by LC-MS/MS analysis; format: ADME, Microsome
# Cytochrome P450 3A4, sequence (P08684 whole entry): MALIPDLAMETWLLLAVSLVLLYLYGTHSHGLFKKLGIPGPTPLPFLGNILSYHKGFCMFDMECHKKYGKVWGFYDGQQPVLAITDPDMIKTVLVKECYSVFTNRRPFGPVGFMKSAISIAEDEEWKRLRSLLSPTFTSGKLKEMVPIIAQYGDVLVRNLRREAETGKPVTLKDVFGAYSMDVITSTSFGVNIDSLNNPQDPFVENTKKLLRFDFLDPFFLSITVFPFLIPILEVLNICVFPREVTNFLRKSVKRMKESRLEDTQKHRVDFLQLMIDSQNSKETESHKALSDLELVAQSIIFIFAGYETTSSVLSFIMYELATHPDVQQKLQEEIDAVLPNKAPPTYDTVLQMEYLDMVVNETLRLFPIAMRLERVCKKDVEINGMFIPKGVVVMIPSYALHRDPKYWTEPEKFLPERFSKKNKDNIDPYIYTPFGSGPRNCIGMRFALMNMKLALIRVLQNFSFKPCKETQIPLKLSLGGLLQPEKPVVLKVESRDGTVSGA
# [17] = Drug distribution in C57BL/6 mouse colon at 30 mg/kg, ip measured after 0.5 hrs by LC-MS/MS analysis; format: ADME, organism-based; details: read-out: Drug uptake
# [18] = biological target: Adenosine receptor A2a (Homo sapiens) (UniProt P29274); experiment: Inhibition of adenosine A2A receptor (unknown origin) at 1 uM relative to control
# [19] = biological target: NACHT, LRR and PYD domains-containing protein 3 (Mus musculus) (UniProt Q8R4B8); experiment: Inhibition of NLRP3 inflammasome activation in LPS/nigericin induced mouse BMDM cells assessed as reduction in GSDMD-N expression at 0.25 to 1 uM preincubated with LPS for 3 hrs followed by compound addition for 40 mins and further stimulated with nigericin for 40 mins by Western blot analysis; format: cell-based; details: dose 0.25-1 µM, time 80.0 min
# NACHT, LRR and PYD domains-containing protein 3 (Mus musculus), sequence (Q8R4B8 whole entry, the tested form may be a part): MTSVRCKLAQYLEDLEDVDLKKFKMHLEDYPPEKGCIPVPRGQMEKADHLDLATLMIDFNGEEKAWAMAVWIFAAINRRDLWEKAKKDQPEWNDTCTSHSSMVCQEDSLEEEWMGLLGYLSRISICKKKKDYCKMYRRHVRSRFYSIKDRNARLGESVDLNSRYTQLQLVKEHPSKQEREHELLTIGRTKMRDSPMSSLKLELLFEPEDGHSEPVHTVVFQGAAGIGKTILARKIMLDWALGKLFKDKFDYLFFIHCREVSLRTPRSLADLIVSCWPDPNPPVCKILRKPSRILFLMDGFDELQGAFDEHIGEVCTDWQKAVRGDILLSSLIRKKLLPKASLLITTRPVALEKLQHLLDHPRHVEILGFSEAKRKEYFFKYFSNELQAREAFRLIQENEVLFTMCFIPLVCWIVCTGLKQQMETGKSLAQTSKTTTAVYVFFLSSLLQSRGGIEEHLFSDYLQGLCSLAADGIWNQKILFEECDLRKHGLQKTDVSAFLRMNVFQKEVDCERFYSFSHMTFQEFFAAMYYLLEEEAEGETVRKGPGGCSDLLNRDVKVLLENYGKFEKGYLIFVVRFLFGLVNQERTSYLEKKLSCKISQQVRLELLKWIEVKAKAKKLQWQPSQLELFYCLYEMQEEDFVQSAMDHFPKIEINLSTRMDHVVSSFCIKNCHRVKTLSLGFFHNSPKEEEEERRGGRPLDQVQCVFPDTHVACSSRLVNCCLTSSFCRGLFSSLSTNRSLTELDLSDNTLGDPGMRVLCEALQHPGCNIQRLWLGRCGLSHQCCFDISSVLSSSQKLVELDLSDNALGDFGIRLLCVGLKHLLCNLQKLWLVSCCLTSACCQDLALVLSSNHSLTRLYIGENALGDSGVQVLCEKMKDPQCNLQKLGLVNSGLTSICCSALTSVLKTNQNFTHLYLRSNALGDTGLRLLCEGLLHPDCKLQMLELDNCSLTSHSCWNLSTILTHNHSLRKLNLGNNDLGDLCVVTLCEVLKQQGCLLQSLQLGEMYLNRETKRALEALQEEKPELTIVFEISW
# [20] = biological target: Cannabinoid receptor 2 (Homo sapiens) (UniProt P34972); experiment: Activation of CB2 receptor (unknown origin) at 1 uM relative to control
# [21] = biological target: Muscarinic acetylcholine receptor M3 (Homo sapiens) (UniProt P20309); experiment: Inhibition of muscarinic M3 receptor (unknown origin) at 1 uM relative to control
# Muscarinic acetylcholine receptor M3 (Homo sapiens), sequence (P20309 whole entry, looked up): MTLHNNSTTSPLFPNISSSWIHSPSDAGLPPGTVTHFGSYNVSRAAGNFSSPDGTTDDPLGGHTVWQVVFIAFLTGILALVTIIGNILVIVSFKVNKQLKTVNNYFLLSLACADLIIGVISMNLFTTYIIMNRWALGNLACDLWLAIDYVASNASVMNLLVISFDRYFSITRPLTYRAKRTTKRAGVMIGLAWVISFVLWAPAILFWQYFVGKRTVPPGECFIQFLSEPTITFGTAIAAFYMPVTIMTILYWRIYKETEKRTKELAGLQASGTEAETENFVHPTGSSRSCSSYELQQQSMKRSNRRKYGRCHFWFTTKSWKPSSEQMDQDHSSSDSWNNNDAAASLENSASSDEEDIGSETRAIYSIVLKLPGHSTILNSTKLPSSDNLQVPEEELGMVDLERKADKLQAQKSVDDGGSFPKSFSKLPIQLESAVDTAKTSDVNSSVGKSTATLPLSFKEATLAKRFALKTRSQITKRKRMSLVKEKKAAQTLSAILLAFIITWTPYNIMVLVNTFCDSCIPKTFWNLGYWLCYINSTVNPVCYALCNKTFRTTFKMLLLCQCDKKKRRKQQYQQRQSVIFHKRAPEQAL
# [22] = biological target: Histamine H1 receptor (Homo sapiens) (UniProt P35367); experiment: Inhibition of Histamine H1 receptor (unknown origin) at 1 uM relative to control
# Histamine H1 receptor (Homo sapiens), sequence (P35367 whole entry): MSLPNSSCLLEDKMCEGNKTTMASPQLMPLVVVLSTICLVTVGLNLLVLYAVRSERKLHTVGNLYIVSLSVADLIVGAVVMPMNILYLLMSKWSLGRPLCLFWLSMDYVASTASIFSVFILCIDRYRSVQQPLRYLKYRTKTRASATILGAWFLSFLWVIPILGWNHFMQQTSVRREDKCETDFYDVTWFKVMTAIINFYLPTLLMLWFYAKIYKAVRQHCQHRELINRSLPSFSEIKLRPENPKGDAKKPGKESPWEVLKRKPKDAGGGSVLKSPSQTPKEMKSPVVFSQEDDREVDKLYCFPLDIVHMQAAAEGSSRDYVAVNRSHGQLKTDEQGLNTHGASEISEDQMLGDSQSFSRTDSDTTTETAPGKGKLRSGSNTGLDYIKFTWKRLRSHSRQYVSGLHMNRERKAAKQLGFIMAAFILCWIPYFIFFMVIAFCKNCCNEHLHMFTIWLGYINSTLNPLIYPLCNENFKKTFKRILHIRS
# [23] = biological target: Prostaglandin G/H synthase 2 (Homo sapiens) (UniProt P35354); experiment: Inhibition of COX2 (unknown origin) at 1 uM relative to control
# [24] = biological target: Androgen receptor (Homo sapiens) (UniProt P10275); experiment: Inhibition of Androgen receptor (unknown origin) at 1 uM relative to control
# [25] = system: Mus musculus; experiment: Anti-colitis activity against DSS-induced ulcerative colitis C57BL/6 mouse model assessed as reduction in colon length shortening at 15 to 30 mg/kg, ip administered daily and measured upto 10 days; format: functional, organism-based; details: dose 15-30 mg/kg, time <= 10.0 day
# [26] = Drug distribution in C57BL/6 mouse colon at 30 mg/kg, ip measured after 24 hrs by LC-MS/MS analysis; format: ADME, organism-based; details: read-out: Drug uptake
# [27] = system: HEK293T; experiment: Inhibition of HA-NLRP3 C279A mutant/FLAG tagged NEK7 interaction (unknown origin) transfected in HEK293T cells at 1 uM incubated for 24 hrs by Western blot analysis; format: cell-based; details: Homo sapiens
# [28] = biological target: Histamine H1 receptor (Homo sapiens) (UniProt P35367); experiment: Activation of Histamine H1 receptor (unknown origin) at 1 uM relative to control
# [29] = biological target: Alpha-1A adrenergic receptor (Homo sapiens) (UniProt P35348); experiment: Activation of alpha 1A adrenergic receptor (unknown origin) at 1 uM relative to control
# Alpha-1A adrenergic receptor (Homo sapiens), sequence (P35348 whole entry): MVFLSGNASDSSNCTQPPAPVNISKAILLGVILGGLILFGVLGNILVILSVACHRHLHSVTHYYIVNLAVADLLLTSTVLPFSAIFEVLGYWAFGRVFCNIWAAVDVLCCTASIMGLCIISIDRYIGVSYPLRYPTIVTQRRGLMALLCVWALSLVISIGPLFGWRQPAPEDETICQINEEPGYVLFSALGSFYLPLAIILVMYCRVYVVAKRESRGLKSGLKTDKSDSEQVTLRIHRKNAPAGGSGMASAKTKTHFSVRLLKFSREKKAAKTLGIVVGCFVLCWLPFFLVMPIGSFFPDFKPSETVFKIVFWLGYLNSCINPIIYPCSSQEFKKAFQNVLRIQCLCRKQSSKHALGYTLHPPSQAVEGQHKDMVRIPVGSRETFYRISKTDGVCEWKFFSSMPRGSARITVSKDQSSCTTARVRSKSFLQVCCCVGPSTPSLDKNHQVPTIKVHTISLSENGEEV
# [30] = Drug distribution in C57BL/6 mouse plasma at 30 mg/kg, ip measured after 0.5 hrs by LC-MS/MS analysis; format: ADME, organism-based
# [31] = biological target: Mu-type opioid receptor (Homo sapiens) (UniProt P35372); experiment: Activation of mu opioid receptor (unknown origin) at 1 uM relative to control
# [32] = Drug distribution in C57BL/6 mouse plasma at 30 mg/kg, ip measured after 8 hrs by LC-MS/MS analysis; format: ADME, organism-based
# [33] = biological target: NACHT, LRR and PYD domains-containing protein 3 (Mus musculus) (UniProt Q8R4B8); experiment: Inhibition of NLRP3 inflammasome activation in LPS/Nigericin induced mouse BMDM cells assessed as effect on pro-IL-1 beta expression at 0.25 to 1 uM preincubated with LPS for 3 hrs followed by compound addition for 40 mins and further stimulated with nigericin for 40 mins by Western blot analysis; format: cell-based; details: dose 0.25-1 µM, time 80.0 min
smiles,measurement,setting,value
C=C1C(=O)O[C@@H]2C[C@@]3(C)CC[C@@H](OC(=O)c4cnc(Cl)cc4Cl)C(=C)[C@@H]3C[C@H]12,Activity,[1],< 50%
same,IC50,[2],> 100 µM
same,half-life,[3],6.83 h
same,AUC(0-t) at 24 h,[4],16.8 ng·h/mL
same,Activity,[5],< 50%
same,Activity,[6],< 50%
same,Activity,[7],Active
same,inhibition,[8],Active
same,Activity,[9],< 50%
same,Activity,[10],Active
same,inhibition,[11],< 50%
same,Activity,[12],< 50%
same,Activity,[13],Active
same,Activity,[14],Non-Toxic
same,concentration at 2 h,[15],1.97 ng/mL
same,IC50,[16],> 100 µM
same,concentration at 0.5 h,[17],12900 ng/g
same,inhibition,[18],< 50%
same,inhibition,[19],Active
same,Activity,[20],< 50%
same,inhibition,[21],< 50%
same,inhibition,[22],< 50%
same,inhibition,[23],< 50%
same,inhibition,[24],< 50%
same,Activity,[25],Active
same,concentration at 24 h,[26],81.3 ng/g
same,inhibition,[27],inactive
same,Activity,[28],< 50%
same,Activity,[29],< 50%
same,concentration at 0.5 h,[30],0.22 ng/mL
same,Activity,[31],< 50%
same,concentration at 8 h,[32],1.52 ng/mL
same,inhibition,[33],inactive
